Data set [1] concerns Wistar rats. Briefly: Test II: Neuropathic Pain Model (partial ligation of the sciatic nerve, mechanical hyperalgesia). The format is in vivo. The settings on record: p.o.; dose necessary to produce 50% reversal of hyperalgesia; rat. The source says:
Test II: Neuropathic Pain Model
Hyperalgesia is examined in the model of neuropathic pain Induced by partial ligation of the sciatic nerve as described by Seltzer et al. (1990). Briefly, Wistar rats (120–140 g) are anaesthetised, the left sciatic nerve exposed at mid-thigh level through a small incision and ⅓ to ½ of the nerve thickness tightly ligated within a 7.0 silk suture. The wound is closed with a single muscle suture and skin clips and dusted with Aureomycin antibiotic powder. The animals are allowed to recover and used 12–15 days following surgery.
Mechanical hyperalgesia is assessed by measuring paw withdrawal thresholds to an increasing pressure stimulus placed onto the dorsal surface of the paw using an analgesymeter (Ugo-Basile, Milan) with a cut-off of 250 g. Withdrawal thresholds are measured on both the ipsilateral (ligated) and contralateral (unligated) paw prior to (predose) and then up to 6 h following drug or vehicle administration. Data are expressed as withdrawal threshold (g) and percentage reversal of hyperalgesia calculated according to the following formula: […]
Potency is expressed as D50 value, i.e. the dose of compound necessary to produce 50% reversal of hyperalgesia.

Turning to `CCCCCOc1ccc(S(=O)(=O)N2CCCc3ccccc32)c2ccccc12`, the melting point is 78 to 80 °C. Still for that read-out and setting: for `CCCCCOc1ccc(C(=O)Oc2cccc3ccccc23)c2ccccc12` the value was 95 to 100 °C; for `CCCCCOc1ccc([S+]([O-])c2cccc3ccccc23)c2ccccc12` (centres unmarked), 88 to 91 °C. For `CCCCCOc1ccc(S(=O)(=O)c2cccc3ccccc23)c2ccccc12`, the melting point is 143 to 144 °C.

On to `CCCCCOc1ccc(C(=O)c2cccc3ccccc23)c2ccccc12` [Example 1, naphthalen-1-yl-(4-pentyloxy-naphthalen-1-yl)-methanone], for which the “D50 value in the neuropathic pain model” value in data set [1] was found to be 0.18 mg/kg.

Broadly, the melting point is the temperature, or range, at which the solid turns liquid.
